The text below walks through data of patent publication US12264156B2, “Compounds and pharmaceutical compositions thereof for the treatment of diseases” (GALAPAGOS NV, priority 2018, dated 2025).

Usually pIC50 stands for −log10 of the IC50, conventionally taken in molar units. Broadly, the pEC50 is the negative decadic logarithm of the EC50, by convention in mol/L.

Test [1] concerns TNFα. The test can be described thus: Mouse LPS-induced endotoxic shock, plasma TNFα. More on the design: key: +: statistically significant inhibition of TNFα; −: no effect on the level of TNFα. The class given is in vivo. The conditions noted are these: 3 mg/kg, p.o.; plasma 90 min after LPS challenge. The protocol:
(§1) Injection of lipopolysaccharide (LPS) induces a rapid release of soluble tumour necrosis factor (TNFα) into the periphery. This model was used to assess prospective blockers of TNFα release in vivo.
(§2) Lipopolysaccharide (LPS) from Escherichia Coli serotype O111:B4 was obtained from Sigma Aldrich (Cat #L2630).
(§3) BALB/cAnNCrl mice (female, 18-20 g body weight) were obtained from Charles River (Calco, Italy). Mice were kept on a 12 h light/dark cycle. Temperature was maintained at 22±2° C., food and water were provided ad libitum.
(§4) Mice were dosed once by oral (p.o.) or subcutaneous (sc) route with the tested compound in the appropriate vehicle.
(§5) At the Tmax of compound, 100 μg of LPS (in H2O) was injected intraperitoneally to mice. A control group was included which comprises administering the vehicle without an LPS challenge.
(§6) Mice were sacrificed 90 min after LPS challenge and blood was collected in heparinised tubes. Plasma was obtained by centrifugation for 15 min, 2000×g at +4° C. and frozen at −80° C. before cytokine analysis.
(§7) TNFα and IL-10 were quantified in plasma by AlphaLISA detection kits obtained from PerkinElmer (Massachusetts, USA), Cat4 AL505C and AL502C, respectively.
(§8) Statistics were performed with Prism 5.03 software (GraphPad) using an ANOVA analysis of variance with Dunnett's post-hoc test versus LPS group.
(§9) Active compounds were defined as showing a statistically significant decrease in TNFα with or without a statistically significant induction of IL-10

The target in test [2] is T1, SIK3 (Homo sapiens, UniProt Q9Y2K2).
T1 construct: purchased SignalChem S12-11G-100
T1 sequence (Q9Y2K2 whole entry): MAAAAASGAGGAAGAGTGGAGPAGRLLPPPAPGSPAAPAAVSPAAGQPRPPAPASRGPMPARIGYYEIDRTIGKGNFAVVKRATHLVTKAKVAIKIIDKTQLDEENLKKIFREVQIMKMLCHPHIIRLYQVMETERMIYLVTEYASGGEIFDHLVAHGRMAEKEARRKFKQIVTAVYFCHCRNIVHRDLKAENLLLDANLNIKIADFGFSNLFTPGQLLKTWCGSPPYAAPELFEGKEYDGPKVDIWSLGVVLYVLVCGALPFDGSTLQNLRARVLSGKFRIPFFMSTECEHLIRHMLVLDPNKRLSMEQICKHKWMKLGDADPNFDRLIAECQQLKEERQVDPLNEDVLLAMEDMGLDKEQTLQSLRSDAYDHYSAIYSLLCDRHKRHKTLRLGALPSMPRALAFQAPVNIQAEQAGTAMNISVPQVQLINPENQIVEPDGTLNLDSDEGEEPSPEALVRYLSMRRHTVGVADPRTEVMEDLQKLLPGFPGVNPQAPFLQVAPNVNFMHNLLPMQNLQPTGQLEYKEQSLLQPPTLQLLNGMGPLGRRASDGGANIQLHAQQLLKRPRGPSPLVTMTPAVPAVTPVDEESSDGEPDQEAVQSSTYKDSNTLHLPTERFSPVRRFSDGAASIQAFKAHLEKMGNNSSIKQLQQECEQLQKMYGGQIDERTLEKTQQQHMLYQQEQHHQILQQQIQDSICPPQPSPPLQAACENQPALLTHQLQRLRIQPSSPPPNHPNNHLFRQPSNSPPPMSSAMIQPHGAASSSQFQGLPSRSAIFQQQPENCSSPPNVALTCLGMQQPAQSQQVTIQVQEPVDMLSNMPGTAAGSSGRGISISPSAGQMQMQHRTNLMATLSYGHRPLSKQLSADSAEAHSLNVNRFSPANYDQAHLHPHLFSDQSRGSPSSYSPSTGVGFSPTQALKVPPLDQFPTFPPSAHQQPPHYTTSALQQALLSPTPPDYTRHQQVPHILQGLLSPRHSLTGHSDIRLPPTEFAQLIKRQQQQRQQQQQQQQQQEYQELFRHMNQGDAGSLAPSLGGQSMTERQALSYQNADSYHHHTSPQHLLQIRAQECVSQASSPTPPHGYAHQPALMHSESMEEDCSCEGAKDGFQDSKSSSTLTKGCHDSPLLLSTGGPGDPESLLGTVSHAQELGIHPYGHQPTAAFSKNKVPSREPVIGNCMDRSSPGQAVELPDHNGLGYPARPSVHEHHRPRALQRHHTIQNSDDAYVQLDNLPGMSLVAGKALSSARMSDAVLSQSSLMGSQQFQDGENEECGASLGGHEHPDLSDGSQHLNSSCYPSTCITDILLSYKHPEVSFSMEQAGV
The test can be described thus: ADP-Glo kinase assay, SIK3. The class given is biochemical. The conditions noted are these: ADP-Glo SIK kinase assay. An outline of the steps:
(§10)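 ADP-Glo, RT throughout. Enz/substrate + ATP, 120 min; ADP-Glo reagent 40 min (ATP depletion); detection reagent 30 min; luminescence read. Neg ctrl 1% DMSO, pos ctrl 10 μM staurosporine, final concs.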
Background: ADP-Glo turns the ADP formed in a reaction into a luminescent signal.

For test [3], the target named is T2, SIK1 (Homo sapiens, UniProt P57059).
T2 construct: purchased Carna Biosciences 02-131
T2 sequence (P57059 whole entry): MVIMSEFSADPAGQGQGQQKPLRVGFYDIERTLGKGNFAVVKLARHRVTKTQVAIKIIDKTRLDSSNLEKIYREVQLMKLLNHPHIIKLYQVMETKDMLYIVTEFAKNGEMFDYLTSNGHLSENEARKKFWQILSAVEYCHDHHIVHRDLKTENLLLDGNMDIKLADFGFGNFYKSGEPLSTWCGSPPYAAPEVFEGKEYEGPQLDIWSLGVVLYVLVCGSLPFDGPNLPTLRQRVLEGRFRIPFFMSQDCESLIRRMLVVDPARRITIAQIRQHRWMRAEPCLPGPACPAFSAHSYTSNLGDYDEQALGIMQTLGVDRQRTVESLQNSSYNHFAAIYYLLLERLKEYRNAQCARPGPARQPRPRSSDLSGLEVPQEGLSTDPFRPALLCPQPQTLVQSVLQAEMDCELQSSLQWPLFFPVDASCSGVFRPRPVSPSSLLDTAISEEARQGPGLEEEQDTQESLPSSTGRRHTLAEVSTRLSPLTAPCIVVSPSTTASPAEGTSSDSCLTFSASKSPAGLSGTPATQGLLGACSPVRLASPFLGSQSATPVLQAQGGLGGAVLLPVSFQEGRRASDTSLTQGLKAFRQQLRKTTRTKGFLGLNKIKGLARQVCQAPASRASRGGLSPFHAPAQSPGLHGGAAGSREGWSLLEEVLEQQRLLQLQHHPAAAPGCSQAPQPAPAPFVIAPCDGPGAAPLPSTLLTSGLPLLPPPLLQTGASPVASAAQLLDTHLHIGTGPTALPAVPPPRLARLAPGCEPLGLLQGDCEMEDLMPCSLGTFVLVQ
The experiment in a line: ADP-Glo kinase assay, SIK1. It is filed as biochemical. To be noted: ADP-Glo SIK kinase assay. In outline:
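Wells with 1% DMSO or 10 μM staurosporine (final) define the control window. The kinase reaction with substrate and ATP runs 120 min at RT, followed by ADP-Glo detection: ATP depletion (40 min) and ADP-derived luminescence (30 min).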

In test [4] the test system is LPS-induced TNFα in monocyte-derived macrophages (MdM). The test can be described thus: MdM assay: LPS-triggered TNFα (ELISA). The class given is cell-based, human. To be noted: Homo sapiens, Macrophage, 20 h, monocyte-derived macrophages, LPS 200 ng/mL, supernatant after 20 h; read-out: TNFα EC50. The procedure:
This assay evaluates illustrative compounds of the invention for their inhibition of LPS-induced TNFα and LPS triggered IL-10 secretion in monocyte-derived macrophages.
PBMCs are isolated from human blood samples (buffycoats). The buffy coat is aseptically transferred into a 50 mL Falcon tube, and diluted 1/2 in PBS. Falcon tubes are filled with 20 mL Lymphoprep™, on top of which 25 mL of the buffy coat is carefully added, tubes are centrifuged for 35 min at 400 g in temperature controlled centrifuge, without brake, at 25° C. PBMCs are aspirated from the white interface layer between sample and Lymphoprep™. PBMCs are washed five times in PBS.
PBMCs are centrifuged at 300×g for 10 min and resuspended at a density of 1.0*10^7 cells/80 μL Miltenyi buffer (PBS, pH 7.4, 1% FBS, 2 mM EDTA).
Starting from this point of the protocol all steps are performed on ice. 20 μL of CD14+ micro-beads are added per 1.0*10^7 cells, the tube is mixed and incubated for 15 min in the fridge at 4° C. Cell suspension volume is adjusted to total volume of 100 mL using Miltenyi buffer, mixed gently and subsequently centrifuged for 10 min at 300×g. Supernantant is discarded and cell pellet is resuspended in 12 mL of Miltenyi buffer.
Four LS columns are placed in the MACS Separator (magnet) from Miltenyi Biotec, and are prewet by rinsing with 3 mL of MACS buffer per column. Three mL of cell suspension is added onto the column (max 1*10^8 of labelled cells/column), and columns are subsequently washed 3 times with 3 mL of Miltenyi buffer.
The columns are removed from the magnets, and 5 mL of Miltenyi buffer are added to the column to flush out the CD14+ fraction by pushing the plunger into the column. The flushed fractions are collected in a fresh 50 mL Falcon and volume is adjusted to 30 mL using Miltenyi buffer, cells are centrifuged for 10 min at 300×g. The obtained cell pellet is resuspended in 10 mL RPMI w/o FBS, and cell density is determined using a hematologic analyser (Sysmex XS-500i).
On day 10, MdMs are triggered and compound is added.
A compound dilution plate is made in 100% DMSO by 3-fold dilution of 10 mM stock solution. An intermediate dilution plate (10× final concentration) is made by diluting the compound dilution plate 50-fold in RPMI medium.
Medium is carefully removed from cell plates using multichannel pipette, and replaced by 80 μL fresh medium. 10 μL of the 10× final concentration compound is added to the cells and incubated for 1 hour at 37° C. before addition of trigger. No trigger conditions/trigger conditions are spiked with equal final DMSO concentrations of 0.2% DMSO. 10 μL of 10×LPS (final conc. 200 ng/mL) solution are added to all wells except for the ‘no trigger wells’ where 10 μL medium is added. Supernatant is collected after 2 h (IL-10 determination) and after 20 h (TNFα determination) of LPS triggering.
The plate is then washed once with PBST (PBS+0.05% Tween20) and once with PBS followed by the addition of 100 μL of blocking buffer (1% Bovine Serum Albumin (BSA)−5% Sucrose) and plates are sealed and incubated for at least 4 h at RT. After washing the plate once with PBST and once with PBS, 40 μL of standard or sample are added (TNFα standard curve is prepared using a 1/2 serial dilution starting from […]; dilutions are made in dilution buffer (PBS+1% BSA)). Plates are washed twice with PBST, and once with PBS, after which 35 μL of the detection antibody is added (final concentration 0.25 μg/mL diluted in dilution buffer) and plates are incubated for at least 2 h at RT. Plates are washed twice with PBST, and once with PBS, where after 35 μL of Strep-HRP conjugate (0.5 μg/mL final concentration diluted in dilution buffer) is added. Plates are incubated in the dark, at RT for at least 45 min but no longer than 1 hour. Plates are washed twice with PBST, and once with PBS.
A general note: ELISA stands for enzyme-linked immunosorbent assay.

Test [5] has as its target T3, SIK2 (Homo sapiens, UniProt Q9H0K1).
T3 construct: purchased ThermoFisher Scientific PV4792
The test can be described thus: ADP-Glo kinase assay, SIK2. To be noted: ADP-Glo SIK kinase assay. The class given is biochemical. In outline: as §10

The subject of test [6] is IL-10. The experiment in a line: Mouse LPS-induced endotoxic shock, plasma IL-10. The class given is in vivo. Set-up: key: +: statistically significant induction of IL-10; −: no effect on the level of IL-10. The conditions noted are these: 3 mg/kg, p.o.; plasma 90 min after LPS challenge. The protocol: as §1, §2, §3, §4, §5, §6, §7, §8, §9
Test [7] relates to LPS triggered IL-10 secretion in monocytes. The experiment in a line: Monocytes assay: LPS-triggered IL-10 (ELISA). The class given is cell-based, human. The conditions noted are these: LPS 200 ng/mL, supernatant after 4 h, maximal fold change vs LPS only. In outline:
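Human CD14+ monocytes, magnetically isolated from buffy-coat PBMCs, were seeded at 100 000 cells/well and preincubated with compound for 1 h at 37° C (0.2% DMSO). LPS was then added at a final 200 ng/mL for 4 h. Supernatant IL-10 was quantified by chemiluminescent sandwich ELISA against a standard curve.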

The subject of test [8] is LPS-induced TNFα in monocytes. The test can be described thus: Monocytes assay: LPS-triggered TNFα (ELISA). The class given is cell-based, human. The conditions noted are these: Homo sapiens, Monocyte, 4 h, LPS 200 ng/mL, supernatant after 4 h. In outline:
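Human CD14+ monocytes from buffy-coat PBMCs (magnetic bead selection) were seeded at 100 000 cells/well and pretreated with compound for 1 h at 37° C (0.2% DMSO). They were then stimulated with 200 ng/mL LPS for 4 h, and supernatant TNFα was measured by chemiluminescent sandwich ELISA as percent inhibition.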

pEC50, pIC50: −log10 of the molar value.

T3 sequence (Q9H0K1 whole entry): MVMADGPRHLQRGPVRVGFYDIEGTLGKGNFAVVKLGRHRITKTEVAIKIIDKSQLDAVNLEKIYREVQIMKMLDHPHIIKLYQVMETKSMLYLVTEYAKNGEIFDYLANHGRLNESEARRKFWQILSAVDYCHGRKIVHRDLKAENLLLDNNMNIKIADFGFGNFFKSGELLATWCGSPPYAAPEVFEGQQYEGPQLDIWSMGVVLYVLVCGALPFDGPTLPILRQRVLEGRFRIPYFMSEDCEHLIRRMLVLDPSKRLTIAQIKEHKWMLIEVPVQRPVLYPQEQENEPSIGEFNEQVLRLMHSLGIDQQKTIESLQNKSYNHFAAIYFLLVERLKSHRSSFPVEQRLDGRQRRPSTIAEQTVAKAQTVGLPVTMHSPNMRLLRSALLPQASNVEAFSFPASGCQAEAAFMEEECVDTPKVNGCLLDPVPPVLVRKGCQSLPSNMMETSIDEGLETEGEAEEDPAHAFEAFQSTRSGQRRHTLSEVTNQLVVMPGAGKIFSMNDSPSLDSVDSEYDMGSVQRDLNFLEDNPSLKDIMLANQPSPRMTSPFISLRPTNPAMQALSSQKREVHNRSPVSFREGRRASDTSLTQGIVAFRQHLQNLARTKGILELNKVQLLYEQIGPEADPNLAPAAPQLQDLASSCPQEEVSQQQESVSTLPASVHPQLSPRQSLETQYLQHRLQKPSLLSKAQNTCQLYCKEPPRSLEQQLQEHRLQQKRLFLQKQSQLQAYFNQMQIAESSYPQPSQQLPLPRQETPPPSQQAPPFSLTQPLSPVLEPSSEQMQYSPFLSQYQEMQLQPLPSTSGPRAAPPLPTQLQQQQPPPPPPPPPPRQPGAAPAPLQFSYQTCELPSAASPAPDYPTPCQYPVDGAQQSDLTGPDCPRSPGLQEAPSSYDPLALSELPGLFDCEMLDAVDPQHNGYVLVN

As for `COc1cc(-c2cnc3cc(OCCCN4CCCCC4)ccn23)cc(OC(F)F)c1C(=O)NC1CC1` [compound 16, N-cyclopropyl-2-(difluoromethoxy)-6-methoxy-4-[7-[3-(1-piperidyl)propoxy]imidazo [1,2-a]pyridin-3-yl]benzamide], the TNFα entry in test [1] is listed as “−”. For the same molecule, the values for the negative-log IC50 (pIC50) in test [2], in test [3] and in test [5] were 8.00 to 11.00, 7.00 to 8.00 and 8.00 to 11.00, respectively. The pEC50 in test [4] was 7.00 to 10.00. The IL-10 result in test [6] is on record as “−”.

As for `COc1cc(-c2cnc3cc(OCC(O)CN4CCC(O)CC4)ccn23)cc(OC(F)F)c1C(=O)NC1CC1` (stereo not drawn) [compound 379, N-cyclopropyl-2-(difluoromethoxy)-4-[7-[2-hydroxy-3-(4-hydroxy-1-piperidyl)propoxy]imidazo [1,2-a]pyridin-3-yl]-6-methoxy-benzamide], the pIC50 in test [2] is 8.00 to 11.00; in test [3], 7.00 to 8.00; in test [5], 8.00 to 11.00. For the same molecule, in test [7], the “IL-10 FCmax median” value was “++ (>1.5-4.5)”. For the same molecule, the pEC50 in test [8] is 6.00 to 7.00.

Take `COc1cc(-c2cnc3cc(OC[C@H]4CCCN(C(C)C)C4)ccn23)cc(OC(F)F)c1C(=O)NC1CC1` [compound 329, N-cyclopropyl-2-(difluoromethoxy)-4-[7-[[(3S)-1-isopropyl-3-piperidyl]methoxy]imidazo [1,2-a]pyridin-3-yl]-6-methoxy-benzamide]: the pIC50 in test [2] is 8.00 to 11.00; in test [3] it was 7.00 to 8.00; in test [5], 8.00 to 11.00. For the same molecule, in test [7], the “IL-10 FCmax median” value is on record as “+++ (>4.5)”. In test [8], this molecule had a pEC50 of 7.00 to 10.00.

With `COc1cc(-c2cnc3cc(OCCCN4CC(O)(C(F)(F)F)C4)ccn23)cc(OC(F)F)c1C(=O)NC1CC1` [compound 348, N-cyclopropyl-2-(difluoromethoxy)-4-[7-[3-[3-hydroxy-3-(trifluoromethyl)azetidin-1-yl]propoxy]imidazo[1,2-a]pyridin-3-yl]-6-methoxy-benzamide], the figures for the pIC50 in test [2], in test [3] and in test [5] were 8.00 to 11.00, 7.00 to 8.00 and 8.00 to 11.00, respectively. Further, the “IL-10 FCmax median” value in test [7] is listed as “++ (>1.5-4.5)”. Further, in test [8], the pEC50 is 7.00 to 10.00.
